Laboratory results from patent US12559461B2, “Antibiotic adjuvant compounds” (UNIVERSITY OF NOTRE DAME DU LAC, priority 2020, dated 2026).
Counter-ions that a name gives are not always drawn. Like-named read-outs stand apart in the source and are kept apart here.

Tests used:
[1] = test system: AB5075; test: Broth microdilution MIC of compound alone (standalone toxicity); format: cell-based, Acinetobacter baumannii
Procedure: (§1) Bacterial Strains and Antimicrobial Agents. Acinetobacter baumannii clinical isolate 5075 was obtained from Dr. Colin Manoil at the University of Washington. Colonies were grown on lysogeny broth (LB) agar. Cation-adjusted Mueller-Hinton Broth (CAMHB) (catalog number 212322) were purchased from BD Diagnostics. LB broth was purchased from Fisher Scientific (catalog number BP9722-2). […] Colistin sulfate salt (catalog number C4461) was purchased from Sigma Aldrich. All assays were completed in duplicate and repeated at least two separate times. All compounds were dissolved as their HCl salts in molecular biology grade DMSO as 10 or 100 mM stock solutions and stored at −20° C. Colistin was dissolved in sterile water while clarithromycin was dissolved in molecular biology grade DMSO.
Broth microdilution method for MIC determination. Day cultures (6 h) of each bacterial strain in cation adjusted Mueller Hinton II broth (CAMHB, Fisher Scientific U.S.) were subcultured to 5×10^5 CFU/mL in CAMHB. Aliquots (1 mL) were placed in culture tubes and compound was added from 10 mM stock samples in DMSO, such that compound concentration equaled highest concentration tested (200 μM). Samples were then aliquoted (200 μL) into the first wells of a 96-well plate, with all remaining wells being filled with 100 μL of initial bacterial subculture. Row one wells were mixed five times, before 100 μL was transferred to row two. Row two was then mixed five times, and 100 μL was transferred to row three. This process was repeated until the final row had been mixed; this served to serially dilute the compound. Plates were then covered with GLAD Press n'Seal and incubated under stationary conditions at 37° C. for 16 h. MIC values were then recorded as the lowest concentration at which no bacterial growth was observed.

[2] = test system: AB5075; test: Broth microdilution clarithromycin (CLR) potentiation and dose-response of adjuvant; format: cell-based, Acinetobacter baumannii; conditions: for adjuvant activity (CLR potentiation), rank by amide linker position: dosed at 30 μM
Procedure: as §1
Broth microdilution method for antibiotic potentiation. Day cultures (6 h) of bacteria in CAMHB were subcultured to 5×10^5 CFU/mL in CAMHB. Aliquots (4 mL) were placed in culture tubes and dosed with compound from 10 mM stock samples to give the desired concentration of the compound to be tested against the particular bacterial strain; this insured non-toxic DMSO concentrations ≤0.3% in each well. 1 mL of the resulting solution was placed in a separate culture and dosed with antibiotic at the highest concentration to be tested. Bacteria treated with antibiotic alone served as the control. Row one of a 96-well plate was filled with 200 μL of the antibiotic/2-AI solution, and rows 2-12 were filled with 100 μL each of the remaining 4 mL of bacterial subculture containing adjuvant at the desired concentration, except for the control lane which contained only bacterial subculture. Row one was then mixed five times, and 100 μL was transferred to row two, which was then mixed five times before being transferred to row three. This process was repeated until all rows had been mixed, except for row twelve which would have only 2-AI to serve as a control to monitor potential toxicity. The 96-well plate was then covered in Glad Press n'Seal and incubated under stationary conditions at 37° C. for 16 h. MIC values were determined as the lowest concentration at which no bacterial growth was observed, and fold reductions were determined by comparison to antibiotic control lane.
Dose-response of Adjuvant Assay. The procedure for ‘broth microdilution method for antibiotic potentiation’ was followed using 4 mL aliquots of adjuvant at various concentrations: 0, 5, 7.5, 10, 15, 20, 25, and 30 μM.

Compound: Cl.Nc1nc(-c2ccc(NC(=O)Nc3ccc(Cl)c(Cl)c3)cc2)c[nH]1 [Compound 20c, 1-(4-(2-amino-1H-imidazol-4-yl)phenyl)-3-(3,4-dichlorophenyl)urea hydrochloride]
- MIC ([1]; Acinetobacter baumannii): 100 µM
- CLR MIC ([2]; compound dosed at higher concentrations (≥20 μM)): ≤ 0.0625 µg/mL
- CLR MIC ([2]; compound tested at 5 μM): 8 µg/mL
- Fold Reduction of CLR MIC ([2]; compound tested at 5 μM): 4 fold
- CLR MIC ([2]; compound tested at 7.5 μM): 2 µg/mL
- Fold Reduction of CLR MIC ([2]; compound tested at 7.5 μM): 16 fold
- CLR MIC ([2]; compound tested at 10 μM): 0.25 µg/mL
- Fold Reduction of CLR MIC ([2]; compound tested at 10 μM): 128 fold
- CLR MIC ([2]; compound tested at 20 μM): ≤0.0625 µg/mL
- Fold Reduction of CLR MIC ([2]; compound tested at 20 μM): ≥512 fold

Compound: Cc1cc(-c2c[nH]c(N)n2)ccc1NC(=O)c1cc(Cl)cc(Cl)c1.Cl [Compound 10a, N-(4-(2-amino-1H-imidazol-4-yl)-2-methylphenyl)-3,5-dichlorobenzamide hydrochloride]
- MIC ([1]; Acinetobacter baumannii): > 200 µM
- CLR MIC ([2]; compound tested at 10 μM): 16 µg/mL
- CLR MIC ([2]; compound tested at 20 μM): 1 µg/mL
- Fold Reduction of CLR MIC ([2]; compound tested at 20 μM): 32 fold
- CLR MIC ([2]; compound tested at 30 μM): 0.5 µg/mL
- Fold Reduction of CLR MIC ([2]; compound tested at 30 μM): 64 fold

Compound: Cl.Nc1nc(-c2ccc(NC(=O)c3ccc(Cl)cc3)cc2)c[nH]1 [Compound 4i]
- CLR MIC ([2]; compound tested at 10 μM): 16 µg/mL
- CLR MIC ([2]; compound tested at 20 μM): 4 µg/mL

Compound: Cl.Nc1nc(-c2ccc(NC(=O)c3ccc(Cl)cc3)cc2)c[nH]1 [Compound 4i, 4-(2-Amino-3H-imidazol-4-yl)phenyl]-4-chlorobenzamide hydrochloride]
- MIC ([1]; Acinetobacter baumannii): > 200 µM

Compound: Cl.Nc1nc(-c2ccc(NC(=O)c3cc(Br)cc(Br)c3)cc2F)c[nH]1 [Compound 15a, N-(4-(2-amino-1H-imidazol-4-yl)-3-fluorophenyl)-3,5-dibromobenzamide hydrochloride]
- MIC ([1]; Acinetobacter baumannii): > 200 µM
- MIC ([1]; hydrochloride): >200 µM
- CLR MIC ([2]; compound tested at 10 μM): 16 µg/mL
- Fold Reduction of CLR MIC ([2]; compound tested at 10 μM): 2 fold
- CLR MIC ([2]; compound tested at 20 μM): 8 µg/mL
- Fold Reduction of CLR MIC ([2]; compound tested at 20 μM): 4 fold
- CLR MIC ([2]; compound tested at 30 μM): 2 µg/mL
- Fold Reduction of CLR MIC ([2]; compound tested at 30 μM): 16 fold

Compound: Cl.Nc1nc(-c2ccc(NC(=O)c3cc(Cl)cc(Cl)c3)cc2Cl)c[nH]1 [Compound 10e, N-(4-(2-amino-1H-imidazol-4-yl)-3-chlorophenyl)-3,5-dichlorobenzamide hydrochloride]
- MIC ([1]; Acinetobacter baumannii): > 200 µM
- CLR MIC ([2]; compound tested at 10 μM): 8 µg/mL
- CLR MIC ([2]; compound tested at 20 μM): 0.5 µg/mL
- Fold Reduction of CLR MIC ([2]; compound tested at 20 μM): 64 fold
- CLR MIC ([2]; compound tested at 30 μM): 0.5 µg/mL
- Fold Reduction of CLR MIC ([2]; compound tested at 30 μM): 64 fold

Compound: Cl.Nc1nc(-c2ccc(NC(=O)c3cccc(I)c3)cc2)c[nH]1 [Compound 4b]
- MIC [1]: >200 µM
- CLR MIC ([2]; compound tested at 30 μM): 32 µg/mL

Compound: Cl.Nc1nc(-c2ccc(NC(=O)Nc3cc(Cl)cc(Cl)c3)cc2)c[nH]1 [Compound 20b, 1-(4-(2-amino-1H-imidazol-4-yl)phenyl)-3-(3,5-dichlorophenyl)urea hydrochloride]
- MIC ([1]; Acinetobacter baumannii): 25 µM
- CLR MIC ([2]; compound tested at 5 μM): 8 µg/mL
- Fold Reduction of CLR MIC ([2]; compound tested at 5 μM): 4 fold
- CLR MIC ([2]; compound tested at 7.5 μM): 0.5 µg/mL
- Fold Reduction of CLR MIC ([2]; compound tested at 7.5 μM): 64 fold

Compound: Cl.Nc1nc(-c2ccc(NC(=O)c3cc(Cl)cc(Cl)c3)cc2F)c[nH]1 [Compound 10d, N-(4-(2-amino-1H-imidazol-4-yl)-3-fluorophenyl)-3,5-dichlorobenzamide hydrochloride]
- MIC ([1]; Acinetobacter baumannii): > 200 µM
- CLR MIC ([2]; compound tested at 5 μM): 8 µg/mL
- Fold Reduction of CLR MIC ([2]; compound tested at 5 μM): 4 fold
- CLR MIC ([2]; compound tested at 7.5 μM): 4 µg/mL
- CLR MIC ([2]; compound tested at 10 μM): 0.5 µg/mL
- Fold Reduction of CLR MIC ([2]; compound tested at 10 μM): 64 fold
- CLR MIC ([2]; compound tested at 20 μM): 0.25 µg/mL
- Fold Reduction of CLR MIC ([2]; compound tested at 20 μM): 128 fold
- CLR MIC ([2]; compound tested at 30 μM, hydrochloride): 0.25 µg/mL

Compound: Cl.Nc1nc(-c2ccc(NC(=O)c3cccc(Cl)c3Cl)cc2)c[nH]1 [Compound 4q, N-(4-(2-amino-1H-imidazol-4-yl)phenyl)-2,3-dichlorobenzamide hydrochloride]
- MIC ([1]; Acinetobacter baumannii): > 200 µM
- CLR MIC ([2]; compound tested at 30 μM): 8 µg/mL
- Fold Reduction of CLR MIC ([2]; compound tested at 30 μM): four-fold

Compound: Cl.Nc1nc(-c2ccc(NC(=O)c3ccc(C(F)(F)F)c(F)c3)cc2)c[nH]1 [Compound 4p, N-(4-(2-amino-1H-imidazol-4-yl)phenyl)-3-fluoro-4-(trifluoromethyl)benzamide hydrochloride]
- MIC ([1]; Acinetobacter baumannii): 50 µM
- CLR MIC ([2]; compound tested at 5 μM): 16 µg/mL
- CLR MIC ([2]; compound tested at 7.5 μM): 4 µg/mL
- CLR MIC ([2]; compound tested at 10 μM): 1 µg/mL
- Fold Reduction of CLR MIC ([2]; compound tested at 10 μM): 32 fold
- CLR MIC ([2]; compound tested at 15 μM): 0.5 µg/mL

Compound: Cl.Nc1nc(-c2ccc(NC(=O)c3cccc(Cl)c3)cc2)c[nH]1 [Compound 4d, 4-(2-Amino-3H-imidazol-4-yl)phenyl]-3-chlorobenzamide hydrochloride]
- MIC ([1]; Acinetobacter baumannii): 200 µM

Compound: Nc1nc(-c2ccc(NC(=O)c3ccc(Br)cc3)cc2)c[nH]1 [Compound 4h, N-(4-(2-amino-1H-imidazol-4-yl)phenyl)-4-bromobenzamide hydrochloride]
- MIC ([1]; Acinetobacter baumannii): > 200 µM

Compound: Cl.Nc1nc(-c2ccc(NC(=O)c3cc(C(F)(F)F)cc(C(F)(F)F)c3)cc2)c[nH]1 [Compound 4l]
- CLR MIC ([2]; compound tested at 15 μM): 8 µg/mL

Compound: Nc1nc(-c2ccccc2NC(=O)c2cc(F)cc(F)c2)c[nH]1 [Compound 19]
- adjuvant activity (CLR potentiation), rank by amide linker position [2]: lowest adjuvant activity

Compound: Cl.Nc1nc(-c2ccc(NC(=O)c3cccc(Cl)c3)cc2)c[nH]1 [Compound 4d]
- CLR MIC ([2]; compound tested at 10 μM): 16 µg/mL
- CLR MIC ([2]; compound tested at 20 μM): 4 µg/mL

Compound: Nc1nc(-c2cccc(NC(=O)c3cc(F)cc(F)c3)c2)c[nH]1 [Compound 18]
- adjuvant activity (CLR potentiation), rank by amide linker position [2]: 4k (highest adjuvant activity) >meta amide linker 18>ortho amide linker 19

Compound: Cl.Nc1nc(-c2ccc(NC(=O)c3cc(C(F)(F)F)cc(C(F)(F)F)c3)cc2)c[nH]1 [Compound 4l, 4-(2-Amino-3H-imidazol-4-yl)phenyl]-3,5-(bistrifluoromethyl)benzamide hydrochloride]
- MIC ([1]; Acinetobacter baumannii): 50 µM

Compound: Cl.Nc1nc(-c2c(F)cc(NC(=O)c3cc(Cl)cc(Cl)c3)cc2F)c[nH]1 [Compound 13, N-(4-(2-amino-1H-imidazol-4-yl)-3,5-difluorophenyl)-3,5-dichlorobenzamide hydrochloride]
- Fold Reduction of CLR MIC ([2]; compound tested at 10 μM): two-fold
- CLR MIC ([2]; compound tested at 20 μM): 8 µg/mL
- CLR MIC ([2]; compound tested at 30 μM): 4 µg/mL

Compound: Nc1nc(-c2ccc(NC(=O)c3ccccc3)cc2)c[nH]1 [Compound 4a, N-(4-(2-amino-1H-imidazol-4-yl)phenyl)benzamide hydrochloride]
- MIC ([1]; Acinetobacter baumannii): > 200 µM
